# Measurements as given in patent publication US20100120867A1, “METHOD OF TREATMENT” (Novartis AG, priority 2007, published 2010).
# Test: Multicenter, double-blind, randomized, placebo-controlled clinical study in subjects with frequent heartburn
# Type: in vivo, human
# Procedure: A multicenter, double-blind, randomized, parallel group, placebo-controlled clinical study is carried out to investigate the safety and efficacy of lansoprazole, 15 mg (or alternatively 30 mg) once daily, in preventing frequent heartburn.
# The trial population consists of subjects (male or female, at least 18 years old) with frequent heartburn, i.e. heartburn occurring a minimum of 2 or more days a week over the past month, that was untreated. A total of 576 subjects with frequent heartburn (288 per group) is randomized in order to yield 546 subjects.
# The study population is divided equally between a treatment group receiving lansoprazole capsules, 15 mg (or alternatively, 30 mg) and a control group receiving placebo capsules. All statistical tests used to compare the two treatment groups are two-sided, with probability of Type I error=0.05.
# Lansoprazole 15 mg (or alternatively, 30 mg) capsules or placebo are taken once daily for 14 days during the double blind treatment period.
# Most measures of efficacy are derived from data recorded in the subject's IVRS diary after a daily self-assessment. Subjects are given instructions to complete the IVRS diary in the morning for the previous 24-hour period on a daily basis for all phases of the study. The diary is designed to collect information on the occurrence of daytime and nighttime heartburn episodes, maximum heartburn severity, and rescue medication consumption for the previous 24 hours. In addition, the date and time of study medication consumption are recorded.
# To classify heartburn severity, subjects are instructed to use the most intense episode of the 24-hour period according to the following Intensity Scale Definitions (Table 6):
# Therefore, the primary evaluation is the period between the first dose (Day 1) through the end of the double blind treatment period, i.e. Days 1-14 for 24-hour days. “No heartburn over 24 hours” on each of Days 1-14 is defined as the combined experience of daytime and nighttime heartburn. […]
# This variable is analyzed as the percentage of nighttimes with the outcome of no nighttime heartburn. […]
# [1] = 14-day course of therapy, randomized treatment group
smiles,measurement,setting,value
Cc1c(OCC(F)(F)F)ccnc1C[S+]([O-])c1nc2ccccc2[nH]1 (stereo not drawn) [Lansoprazole],efficacy in the relief of frequent heartburn compared to placebo,"15 mg once daily, 14 days",superior in efficacy to placebo
same,proportion of 24-hour days substantially free of heartburn compared to placebo,[1],statistically significant increase
same,proportion of nighttimes substantially free of heartburn compared to placebo,[1],statistically significant increase
